The structures appear in SMILES notation.

Assay [1] relates to GUMC-403. The assay is described as follows: viability at highest tested concentration (max response) relative to DMSO (% of DMSO control); higher = less cytotoxic. The following applies: library / dose series: MIPE library, 11-point 1:3 dilution, 48 h. Put shortly: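 Viability at the highest tested concentration is given relative to vehicle control. For this, conditionally reprogrammed patient-derived GUMC-403 papilloma cells at 700/well in 1536-well plates were exposed to 23 nL of pinned compound for 48 h. Luminescence from CellTiter-Glo was read on a ViewLux and scaled between empty wells (0%) and vehicle wells (100%).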

Assay [2] relates to GUMC-403. The assay is described as follows: AC50 for reduction of cell viability; higher = less potent. Particulars: library / dose series: MIPE library, 11-point 1:3 dilution; 48 h.

In the assay with GUMC-403 [1] (top concentration 46.1 µM), `Cc1cc(Nc2cc(NC(=O)c3c(Cl)cccc3Cl)ccn2)nc(N)n1` registered a viability of 13. Moreover, the “AC50 for reduction of cell viability” value in the assay with GUMC-403 [2] came to 20.9 µM.

In the case of `CC(C)[C@]12O[C@H]1[C@@H]3O[C@@]34[C@@]5(C)CC\C6=C(COC6=O)/[C@@H]5C[C@@H]7O[C@]47[C@@H]2O`, the viability with GUMC-403 [1] (top concentration 46.1 µM) was 22.7. In addition, the “AC50 for reduction of cell viability” value with GUMC-403 [2] was determined as 0.0332 µM.

In turn, `C/C(=N\NC(=S)N1CCC1)c1ccccn1` showed a viability with GUMC-403 [1] (top concentration 46.1 µM) of 44. For the same molecule, the “AC50 for reduction of cell viability” value with GUMC-403 [2] came out at 4.18 µM.

`NC(=O)c1ccc2[nH]c(-c3ccc(Oc4ccc(Cl)cc4)cc3)nc2c1` registered a viability in the assay on GUMC-403 [1] (top concentration 46.1 µM) of 79.5. Moreover, the “AC50 for reduction of cell viability” value with GUMC-403 [2] was found to be 2.64 µM.

For the molecule `COC1=CC(=CC(=C1)C2=CC=C3N=CC\4=C(N(C(=O)\C=C4)C5=CC(=C(C=C5)N6CCNCC6)C(F)(F)F)C3=C2)OC`, the viability in the assay on GUMC-403 [1] (top concentration 46.1 µM) was found to be 28.5. Besides, the “AC50 for reduction of cell viability” value in the assay with GUMC-403 [2] came out at 16.6 µM.

In the assay with GUMC-403 [1] (top concentration 92.2 µM), `CC1=C(/C=C/C(C)=C/C=C/C(C)=C/C(=O)Nc2ccc(O)cc2)C(C)(C)CCC1` displayed a viability of 4.3. Further, the “AC50 for reduction of cell viability” value in the assay on GUMC-403 [2] came out at 48.1 µM.

Molecule `CCNC(=O)Nc1ccc(-c2nc3c(c(N4CCOC[C@@H]4C)n2)CCN(C2COC2)C3)cc1` yielded a viability in the assay with GUMC-403 [1] (top concentration 46.1 µM) of 60.3. In addition, in the assay on GUMC-403 [2], the “AC50 for reduction of cell viability” value amounted to 1.18 µM.

Regarding `COC1=C2C[C@@H](C)C[C@H](OC)[C@H](O)[C@@H](C)/C=C(\C)[C@H](OC(N)=O)[C@@H](OC)/C=C/C=C(\C)C(=O)NC(=CC1=O)C2=O`, the viability with GUMC-403 [1] (top concentration 46.1 µM) came out at 23.9. In the assay on GUMC-403 [2], the “AC50 for reduction of cell viability” value is 4.69 µM.

In the assay on GUMC-403 [1] (top concentration 46.1 µM), `CSCC[C@H](NC(=O)[C@H](Cc1c[nH]c2ccccc12)NC(=O)CCNC(=O)OC(C)(C)C)C(=O)N[C@@H](CC(=O)O)C(=O)N[C@@H](Cc1ccccc1)C(N)=O` registered a viability of 30.1. In addition, the “AC50 for reduction of cell viability” value with GUMC-403 [2] stood at 5.9 µM.

In turn, `OC[C@H]1OC(OC2=CC3=C(C(=C2)O)C(=O)\C(=C/O3)C4=CC=C(O)C=C4)[C@H](O)[C@@H](O)[C@@H]1O` (stereo not given in full) had a viability in the assay with GUMC-403 [1] (top concentration 46.1 µM) of 21.4. Besides, the “AC50 for reduction of cell viability” value with GUMC-403 [2] amounted to 9.35 µM.

In the assay on GUMC-403 [1] (top concentration 46.1 µM), `C[S+](=O)([O-])N1CCc2c(-c3cnc(N)nc3)nc(N3CCOCC3)nc21` came in with a viability of 46.2. The “AC50 for reduction of cell viability” value with GUMC-403 [2] is 0.332 µM.

`CN(C)C1=CC=C(C=C1)C(C2=CC=C(C=C2)N(C)C)=C/3\C=C/C(/C=C3)=[N+](C)C` showed a viability with GUMC-403 [1] (top concentration 46.1 µM) of 4.73. Also, the “AC50 for reduction of cell viability” value in the assay on GUMC-403 [2] came out at 14.8 µM.

Consider `Nc1nc(N)c2nc(-c3cccc(O)c3)c(-c3cccc(O)c3)nc2n1`, for which the viability in the assay on GUMC-403 [1] (top concentration 46.1 µM) turned out to be 32.4. Further, the “AC50 for reduction of cell viability” value with GUMC-403 [2] came to 5.26 µM.

For `C[S+](=O)([O-])N1CCN(Cc2cc3nc(-c4cccc5[nH]ncc45)nc(N4CCOCC4)c3s2)CC1`, in the assay on GUMC-403 [1] (top concentration 46.1 µM), the viability turned out to be 55.1. In addition, in the assay with GUMC-403 [2], the “AC50 for reduction of cell viability” value was determined as 0.235 µM.

`CC(C)C1=C(O)C=C(O)C(=C1)C/2=N/NC(=O)N2C3=CC4=C(C=C3)[N](C)C=C4` displayed a viability with GUMC-403 [1] (top concentration 46.1 µM) of 61.4. In the assay on GUMC-403 [2], the “AC50 for reduction of cell viability” value was 0.148 µM.

`COc1ccc(-c2ccc3c(N4CCOCC4)nc(N4C[C@@H](C)O[C@@H](C)C4)nc3n2)cc1CO` yielded a viability in the assay with GUMC-403 [1] (top concentration 46.1 µM) of 62.3. Moreover, the “AC50 for reduction of cell viability” value in the assay with GUMC-403 [2] is 1.87 µM.

In the assay with GUMC-403 [1] (top concentration 46.1 µM), `CC(C)C[C@@H](C(=O)N[C@H](C(=O)OC1CCCC1)c1ccccc1)[C@H](O)C(=O)NO` had a viability of 66.7. In addition, the “AC50 for reduction of cell viability” value with GUMC-403 [2] was 1.66 µM.

`CC1=C2N=C([NH]C2=CC(=C1)N3CCOCC3)\C4=C(NC[C@@H](O)C5=CC=CC(=C5)Cl)\C=C/NC4=O`: the viability in the assay with GUMC-403 [1] (top concentration 46.1 µM) was found to be 13.8. The “AC50 for reduction of cell viability” value in the assay with GUMC-403 [2] is 0.235 µM.

`CC(/C=C/C(=O)NO)=C\[C@@H](C)C(=O)c1ccc(N(C)C)cc1` registered a viability in the assay on GUMC-403 [1] (top concentration 46.1 µM) of 26. Moreover, in the assay with GUMC-403 [2], the “AC50 for reduction of cell viability” value worked out at 20.9 µM.

Regarding `COc1cc(N2CCC(C(N)=O)CC2)ccc1Nc1nc(N)c(Cl)c(Nc2ccccc2[S+](=O)([O-])C(C)C)n1`, the viability with GUMC-403 [1] (top concentration 46.1 µM) was found to be 68.2. The “AC50 for reduction of cell viability” value with GUMC-403 [2] came out at 8.33 µM.

As for `CC1(COc2ccc3c(c2)ncn3-c2ccc3cccc(N4CCC(N)CC4)c3n2)COC1`, in the assay on GUMC-403 [1] (top concentration 46.1 µM), the viability came out at 51.9. The “AC50 for reduction of cell viability” value in the assay on GUMC-403 [2] was 0.0105 µM.

Molecule `CC/C(=C(/c1ccc(O)cc1)c1ccc(OCCNC)cc1)c1ccccc1` yielded a viability in the assay with GUMC-403 [1] (top concentration 46.1 µM) of 23.9. In addition, the “AC50 for reduction of cell viability” value in the assay on GUMC-403 [2] amounted to 23.5 µM.

The molecule `CNC(=O)[C@H](Cc1ccccc1)NC(=O)[C@H](CC(C)C)[C@H](CSc1cccs1)C(=O)NO` gave a viability in the assay with GUMC-403 [1] (top concentration 46.1 µM) of 68.4. Besides, the “AC50 for reduction of cell viability” value with GUMC-403 [2] was 5.26 µM.

Molecule `COc1cccc2c1C(=O)c1c(O)c3c(c(O)c1C2=O)C[C@@](O)(C(=O)CO)C[C@@H]3O[C@H]1C[C@H](N)[C@@H](O)[C@H](C)O1` showed a viability with GUMC-403 [1] (top concentration 46.1 µM) of 48.5. The “AC50 for reduction of cell viability” value with GUMC-403 [2] worked out at 2.09 µM.

In turn, `Cc1nc(N)sc1-c1ccnc(Nc2ccc(N3CCOCC3)cc2)n1` displayed a viability with GUMC-403 [1] (top concentration 46.1 µM) of 29.8. Further, the “AC50 for reduction of cell viability” value with GUMC-403 [2] was 26.4 µM.

The values above are taken from the supplement of paper PMC6723410.
